Assay: Plasma pharmacokinetics of the parent compound after a single oral dose of prodrug
Assay type: in vivo
Details: single oral dose 10 mg/kg, fasted male Sprague Dawley rats; plasma analyzed for the parent compound; study duration 8 h
Method in brief: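 Three male Sprague Dawley rats, housed in metabolic cages and fasted about 15 hours, were weighed and received one oral gavage dose of 10 mg/kg as a solution in water or water/propylene glycol. Blood (approximately 500 μL) went into heparin tubes at set timepoints up to the study duration. Plasma was separated by centrifugation at 14,000 rpm for 3 min at 4° C, stored below −70° C, and assayed for the parent compound.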

AUC0-last hour (area under the curve) | Compound
A (A = 0-1,000 ng/mL) | C=Cc1cc(C(=O)Nc2ccc(C(=N)NC(=O)OC(C)COC(=O)CCCC[C@H]3SCC4NC(=O)NC43)cc2)c(-c2ccc(C(=O)NCC3CC3)nc2C(=O)OC(C)OC(=O)OC(C)C)cc1OC (stereo partly drawn) [Compound 104b, 1-((isopropoxycarbonyl)oxy)ethyl 6-((cyclopropylmethyl)carbamoyl)-3-(5-methoxy-2-((4-(N-(((1-((5-((4R)-2-oxohexahydro-1H-thieno[3,4-d]imidazol-4-yl)pentanoyl)oxy)propan-2-yl)oxy)carbonyl)carbamimidoyl)phenyl)carbamoyl)-4-vinylphenyl)picolinate]
B (B = 1,001-10,000 ng/mL) | C=Cc1cc(C(=O)Nc2ccc(C(=N)NC(=O)OCc3oc(=O)oc3C)cc2)c(-c2ccc(C(=O)NCC3CC3)nc2C(=O)OC(C)OC(=O)C(C)C)cc1OC (stereo not drawn) [Compound 117b, 1-(isobutyryloxy)ethyl 6-((cyclopropylmethyl)carbamoyl)-3-(5-methoxy-2-((4-(N-(((5-methyl-2-oxo-1,3-dioxol-4-yl)methoxy)carbonyl)carbamimidoyl)phenyl)carbamoyl)-4-vinylphenyl)picolinate]
A (A = 0-1,000 ng/mL) | C=Cc1cc(C(=O)Nc2ccc(C(=N)NC(=O)OCc3oc(=O)oc3C)cc2)c(-c2ccc(C(=O)NCC3CC3)nc2C(=O)OCOC(=O)[C@@H](N)C(C)C)cc1OC [Compound 118c, (S)-((2-amino-3-methylbutanoyl)oxy)methyl 6-((cyclopropylmethyl)carbamoyl)-3-(5-methoxy-2-((4-(N-(((5-methyl-2-oxo-1,3-dioxol-4-yl)methoxy)carbonyl)carbamimidoyl)phenyl)carbamoyl)-4-vinylphenyl)picolinate]

The next lines start with the molecule.

Compound | AUC0-last hour (area under the curve)
C=Cc1cc(C(=O)Nc2ccc(C(=N)NC(=O)OC[C@H]3OC[C@H](O)[C@@H]3O)cc2)c(-c2ccc(C(=O)NCC3CC3)nc2C(=O)OC(C)OC(=O)C(C)C)cc1OC (stereo partly drawn) [Compound 98e, 1-(isobutyryloxy)ethyl 6-((cyclopropylmethyl)carbamoyl)-3-(2-((4-(N-((((2R,3S,4S)-3,4-dihydroxytetrahydrofuran-2-yl)methoxy)carbonyl)carbamimidoyl)phenyl)carbamoyl)-5-methoxy-4-vinylphenyl)picolinate] | A (A = 0-1,000 ng/mL)
C=Cc1cc(C(=O)Nc2ccc(C(=N)NC(=O)OC[C@H]3NC[C@H](O)[C@@H]3O)cc2)c(-c2ccc(C(=O)NCC3CC3)nc2C(=O)OC(C)OC(=O)OC(C)C)cc1OC (stereo partly drawn) [Compound 99e, 1-((isopropoxycarbonyl)oxy)ethyl 6-((cyclopropylmethyl)carbamoyl)-3-(2-((4-(N-((((2R,3R,4S)-3,4-dihydroxypyrrolidin-2-yl)methoxy)carbonyl)carbamimidoyl)phenyl)carbamoyl)-5-methoxy-4-vinylphenyl)picolinate] | A (A = 0-1,000 ng/mL)
C=Cc1cc(C(=O)Nc2ccc(C(=N)NC(=O)OCCCCCC)cc2)c(-c2ccc(C(=O)NCC3CC3)nc2C(=O)OC(C)OC(=O)OC(C)CO)cc1OC (stereo not drawn) [Compound 100e, 1-((((1-hydroxypropan-2-yl)oxy)carbonyl)oxy)ethyl 6-((cyclopropylmethyl)carbamoyl)-3-(2-((4-(N-((hexyloxy)carbonyl)carbamimidoyl)phenyl)carbamoyl)-5-methoxy-4-vinylphenyl)picolinate] | B (B = 1,001-10,000 ng/mL)
C=Cc1cc(C(=O)Nc2ccc(C(=N)NC(=O)OCCOC(=O)[C@@H](N)C(C)C)cc2)c(-c2ccc(C(=O)NCC3CC3)nc2C(=O)OC(C)OC(=O)C(C)C)cc1OC (stereo partly drawn) [Compound 101e, 1-(isobutyryloxy)ethyl 3-(2-((4-(N-((2-(((S)-2-amino-3-methylbutanoyl)oxy)ethoxy)carbonyl)carbamimidoyl)phenyl)carbamoyl)-5-methoxy-4-vinylphenyl)-6-((cyclopropylmethyl)carbamoyl)picolinate] | A (A = 0-1,000 ng/mL)
C=Cc1cc(C(=O)Nc2ccc(C(=N)NC(=O)OCCCCCN)cc2)c(-c2ccc(C(=O)NCC3CC3)nc2C(=O)OC(C)OC(=O)C(C)C)cc1OC (stereo not drawn) [Compound 102d, 1-(isobutyryloxy)ethyl 3-(2-((4-(N-(((5-aminopentyl)oxy)carbonyl)carbamimidoyl)phenyl)carbamoyl)-5-methoxy-4-vinylphenyl)-6-((cyclopropylmethyl)carbamoyl)picolinate] | A (A = 0-1,000 ng/mL)
C=Cc1cc(C(=O)Nc2ccc(C(=N)NC(=O)OC[C@@H]3CCC(=O)N3)cc2)c(-c2ccc(C(=O)NCC3CC3)nc2C(=O)OC(C)OC(=O)C(C)C)cc1OC (stereo partly drawn) [Compound 103c, 1-(isobutyryloxy)ethyl 6-((cyclopropylmethyl)carbamoyl)-3-(5-methoxy-2-((4-(N—((((S)-5-oxopyrrolidin-2-yl)methoxy)carbonyl)carbamimidoyl)phenyl)carbamoyl)-4-vinylphenyl)picolinate] | A (A = 0-1,000 ng/mL)

From patent publication US20210198204A1, “PRODRUGS OF KALLIKREIN INHIBITORS” (BioCryst Pharmaceuticals, Inc., priority 2016, published 2021)
